Experimental data from patent US7612049B2, “Method of inhibition the growth of algae” (priority 2007, dated 2009).

How the values were obtained:
Type in all cases: cell-based
Microcystis aeruginosa = assay: Growth inhibition of Cyanobacteria, chlorophyll-a content
Description: (§1) The solution of the control and sample I were centrifuged at 10000 rpm at 20° C. for 3 hours, and then the supernatant were poured out. Next, two 10 ml portions of 95% (v/v) ethanol were added to sample I and the control and mixed with the residues. Next, the solution of sample I and the control were water-bathed in 60° C. water for 30 mins to extract Chlorophyll-a. When being bathed in the water, the solution of the control and sample I were shaken every ten minutes. After that, the solutions were centrifuged at 5000 G at 20° C. for 15 minutes and the supernatants were kept. Then, the absorbance at 665 nm of the control and sample I were detected. Finally, according to the “Standard Methods for the Examination Chlorophyll-a in Water-Ethanol Extraction” issued by National Indian Education Association, Taiwan (NIEA E508.00B), the absorbance at 665 nm of the control and sample I were calibrated and the concentration of Chlorophyll-a content can be calculated by the absorbance measure.
(§2) To verify whether Cyanobacteria can be inhibited by glucosamine or not, in the following embodiment, two kinds of toxic Cyanobacteria, Microcystis aeruginosa and […]. The detailed procedures are described below.
(§3) First, four 50 ml portions of water with Microcystis aeruginosa were obtained and labeled as control and sample II, sample III, and sample IV respectively. The weight concentration of Microcystis aeruginosa cell in these four samples 883 μg/L (ppb). Next, different amount of glucosamine was added into the three samples so that the concentrations of glucosamine in samples II, III, and IV were 10 ppm, 20 ppm, and 50 ppm, respectively. After that, the control and sample II, III, and IV were cultured for 14 days with Bold's medium, and the Chlorophyll-a content of each sample were detected every 7 days. The procedures of detecting Chlorophyll-a content was the same as mentioned in embodiment I and the whole process was repeated for testing Microcystis flos-aquae.

Microcystis flos-aquae = assay: as above
Description: as §1, §2, §3

[1] = test system: fishpond water algae, especially abundant in Chlorophyta; assay: Growth inhibition of algae in fishpond water, chlorophyll-a content by spectrometry; conditions: 100 ppm glucosamine
Description: In order to test if glucosamine inhibited the growth of algae or not, in the following embodiment, glucosamine was added to samples and then observed. Moreover, since chlorophyll-a content of algae is widely used as an indicator of the quality of freshwater bodies and the abundance of algae, the chlorophyll-a content in the sample was detected by spectrometry.
First, two 20 ml portions of water were obtained from a fishpond which contains a varieties of algae and is especially abundant in Chlorophyta. Both portions of water were labeled as control and sample I respectively. Next, 100 ppm glucosamine was added in sample I, and then the control and sample I were cultured for 28 days with Bold's medium.
The solution of the control and sample I were centrifuged at 10000 rpm at 20° C. for 3 hours, and then the supernatant were poured out. Next, two 10 ml portions of 95% (v/v) ethanol were added to sample I and the control and mixed with the residues. […] Then, the absorbance at 665 nm of the control and sample I were detected. Finally, according to the “Standard Methods for the Examination Chlorophyll-a in Water-Ethanol Extraction” issued by National Indian Education Association, Taiwan (NIEA E508.00B), the absorbance at 665 nm of the control and sample I were calibrated and the concentration of Chlorophyll-a content can be calculated by the absorbance measure.

[2] = Microcystis aeruginosa, 336 h, read-out: Inhibition efficiency (after 14 days)

How did the “minimum effective amount of glucosamine” value (Microcystis aeruginosa; 10 ppm divided by 0.883 mg (weight concentration of Cyanobacteria 0.883 mg/L)) turn out when `N[C@H]1C(O)O[C@H](CO)[C@@H](O)[C@@H]1O` (stereo partly drawn) [glucosamine] was run?
Its value is “at least 10 ppm/mg algae”.

And the Chlorophyll-a content (Microcystis aeruginosa; 10 ppm glucosamine (Sample II), 7th day, control 270 ppb)?
Its Chlorophyll-a content is 80 ppb.

And the Chlorophyll-a content (Microcystis aeruginosa; 10 ppm glucosamine (Sample II), 14th day, control 2657 ppb)?
Its Chlorophyll-a content is 1922 ppb.

And the Chlorophyll-a content (Microcystis aeruginosa; 20 ppm glucosamine (Sample III), 7th day, control 270 ppb)?
Its Chlorophyll-a content is 65 ppb.

And the Chlorophyll-a content (Microcystis aeruginosa; 20 ppm glucosamine (Sample III), 14th day, control 2657 ppb)?
The Chlorophyll-a content was 1004 ppb.

And the Chlorophyll-a content (Microcystis aeruginosa; 50 ppm glucosamine (Sample IV), 7th day, control 270 ppb)?
Its Chlorophyll-a content is 41 ppb.

What about the Chlorophyll-a content (Microcystis aeruginosa; 50 ppm glucosamine (Sample IV), 14th day, control 2657 ppb) of the same molecule?
The Chlorophyll-a content was 72.3 ppb.

And the inhibition at 10 ppm (Microcystis aeruginosa; [2])?
Its inhibition at 10 ppm is 27.6%.

What about the inhibition at 20 ppm (Microcystis aeruginosa; [2]) of the same molecule?
Its inhibition at 20 ppm is 62.2%.

What about the inhibition at 50 ppm (Microcystis aeruginosa; [2]) of the same molecule?
Its inhibition at 50 ppm is 97.2%.

What about the Chlorophyll-a content (Microcystis flos-aquae; 10 ppm glucosamine (Sample V), 7th day, control 178 ppb) of the same molecule?
The Chlorophyll-a content was 0 ppb.

What about the Chlorophyll-a content (Microcystis flos-aquae; 10 ppm glucosamine (Sample V), 14th day, control 438 ppb) of the same molecule?
The Chlorophyll-a content was 225 ppb.

And the Chlorophyll-a content (Microcystis flos-aquae; 20 ppm glucosamine (Sample VI), 7th day, control 178 ppb)?
Its Chlorophyll-a content is 3 ppb.

And the Chlorophyll-a content (Microcystis flos-aquae; 20 ppm glucosamine (Sample VI), 14th day, control 438 ppb)?
The Chlorophyll-a content was 142 ppb.

What about the Chlorophyll-a content (Microcystis flos-aquae; 50 ppm glucosamine (Sample VII), 7th day, control 178 ppb) of the same molecule?
The Chlorophyll-a content was 15 ppb.

What about the Chlorophyll-a content (Microcystis flos-aquae; 50 ppm glucosamine (Sample VII), 14th day, control 438 ppb) of the same molecule?
Its Chlorophyll-a content is 92 ppb.

And the inhibition at 10 ppm (Microcystis flos-aquae; Microcystis flos-aquae, 336 h, 10 ppm glucosamine (Sample V), read-out: Inhibition efficiency (after 14 days))?
Its inhibition at 10 ppm is 48.6%.

And the inhibition at 20 ppm (Microcystis flos-aquae; Microcystis flos-aquae, 336 h, 20 ppm glucosamine (Sample VI), read-out: Inhibition efficiency (after 14 days))?
Its inhibition at 20 ppm is 67.5%.

And the inhibition at 50 ppm (Microcystis flos-aquae; Microcystis flos-aquae, 336 h, 50 ppm glucosamine (Sample VII), read-out: Inhibition efficiency (after 14 days))?
The inhibition at 50 ppm was 78.9%.

And the “algae bloom observed after culture” value ([1]; 28 days, Bold's medium)?
The value was “the algae in the control bloomed, but not sample I”.

And the “concentration of Chlorophyll-a content” value ([1]; cultured 28 days with Bold's medium, control 652 ppb)?
Its value is 74 ppb.
